Measured values from US20040152684A1, “Use of antigestagens for inhibiting accelerated endometrial maturation during infertility treatment” (priority 2001, published 2004).

Test system: endometrium of the superovulated pseudopregnant rabbit
Assay: Endometrial receptivity in the superovulated pseudopregnant rabbit model
Type: in vivo, New Zealand White rabbits
Settings: for endometrial maturation (in words): compared with Group 1 controls not subject to ovarian hyperstimulation; for Mc-Phail [x ± SD] (endometrial transformation index, 1 no to 4 high transformation) / Uterine wet weight [x ± SD]: measured at d5 p.hCG; for Uteroglobin ISH [expression in luminal epithelial cells]: uteroglobin mRNA at d5 p.hCG
Protocol: The effects of a 17α-fluoralkylated progesterone receptor antagonist on endometrial activity was evaluated in the superovulated pseudopregnant rabbit model. The pseudopregnancy of the rabbit has proven to be a model system for the human luteal phase (Beier and Kuhnel, 1973, Hormone Res. 4:1-27; Fischer et al., 1985, Fertilitat 1:101-109. In this species, ovarian stimulation induces an advancement of secretory transformation (Delbos-Winter et al., 1987, Fertilitat 3: 87-93) as well as an enhancement of gland formation.
A total of 25 sexually mature nulliparous New Zealand White rabbits with a body weight of 3.1 to 4.0 kg were used for the analysis. The animals were divided into two control groups (groups 1 and 2) and three treatment groups (groups 3-5), with five animals in each group.
Control group 1 received 75 international units (IU) of human chorionic gonadotropin (hCG) administered intravenously in order to induce pseudopregnancy. The day of hCG-injection was designated as day 0 of pseudopregnancy (d0 p.hCG).
Control group 2 and treatment groups 3, 4, and 5 were gonadotropin-stimulated with 5 IU of the human menopausal gonadotropin (HMG) Pergonal® (Serono Pharma, Unterschleipheim, Germany) for 3 days, by subcutaneous injection, in order to induce multiple follicular growth. Pseudopregnancy was induced by the administration of human chorionic gonadotropin (hCG) as described for control group 1 above.
Treatment groups 3, 4 and 5 also received a single per oral application of a 17α-fluoralkylated progesterone receptor antagonist (Compound A) two days after pseudopregnancy induction with the administration of human chorionic gonadotropin (d2 p.hCG).
Animals in all treatment groups were sacrificed on day 5 following pseudopregnancy induction (d5 p.hCG), and uteri were removed. Relative uterine wet weights were determined (in mg/100 g body weight) and a part of the uterus was snap frozen in liquid nitrogen for determination of uteroglobin expression by in situ hybridization. Uteroglobin expression is known as a highly sensitive parameter for determination of endometrial receptivity (Beier, H. M., 1968, Biochem Biophys. Acta. 160:289-291; Beier, H. M., 1982, in: Beier, H. M. and Karlson, P. (eds.), Proteins and Steroids in Early Pregnancy), and is a marker for secretory activity (Beier, 1976, J. Reprod. Fertil. Suppl. 25:53-69) and differentiation of the endometrial epithelium (Krusche & Beier, 1994, Ann. Anat. 176:23-31). In situ hybridization for detection of uteroglobin expression was conducted as previously described in Krusche & Beier, above. Another piece of the uterus was removed and processed for paraffin histology in order to determine the endometrial transformation status using the McPhail-Index (McPhail M k, 1934, J. Phys. 83:145-156) The McPhail Index reflects different degrees of progestogenic (transforming) activity in the rabbit endometrium:
3. pronounced transformation

[1] = Group 3: HMG + hCG, single per oral 0.1 mg/kg on d2 p.hCG
[2] = Group 4: HMG + hCG, single per oral 1 mg/kg on d2 p.hCG
[3] = Group 5: HMG + hCG, single per oral 10 mg/kg on d2 p.hCG

CC(=O)c1ccc([C@H]2C[C@@]3(C)[C@@H](CC[C@@]3(O)C(F)(F)C(F)(F)F)[C@@H]3CCC4=CC(=O)CCC4=C32)cc1 [Compound A, 11β-(4-acetylphenyl)-17β-hydroxy-17α-(1,1,2,2,2-pentafluoroethyl)estra-4,9-dien-3-one]
endometrial maturation (in words) (0.1 mg/kg (Group 3)): roughly corresponded with that of control animals which were not subject to ovarian hyperstimulation | endometrial maturation (in words) (1 mg/kg (group 4)): delayed the timing of maturation beyond that observed in animals which were not subject to hyperovarian stimulation | endometrial maturation (in words) (10 mg/kg (group 5)): delayed the timing of maturation beyond that observed in animals which were not subject to hyperovarian stimulation | Mc-Phail [x ± SD] (endometrial transformation index, 1 no to 4 high transformation) [1]: 3.0 ± 0.1 | Uterine wet weight [x ± SD] [1]: 305 ± 48 mg/kg | Uteroglobin ISH [expression in luminal epithelial cells] [1]: very high | Mc-Phail [x ± SD] (endometrial transformation index, 1 no to 4 high transformation) [2]: 1.5 ± 0.3 | Uterine wet weight [x ± SD] [2]: 227 ± 56 mg/kg | Uteroglobin ISH [expression in luminal epithelial cells] [2]: very low | Mc-Phail [x ± SD] (endometrial transformation index, 1 no to 4 high transformation) [3]: 1.1 ± 0.3 | Uterine wet weight [x ± SD] [3]: 144 ± 30 mg/kg | Uteroglobin ISH [expression in luminal epithelial cells] [3]: absent
